Measurements taken from patent publication US7842684B2, “Diphenylazetidinone derivatives possessing cholesterol absorption inhibitor activity” (AstraZeneca AB, priority 2006, dated 2010).

Columns and labels:
[1] = Absorption in a Caco-2 cells model; format: in vitro ADME; details: human
Method: Absorption of the compounds of formula (I) was tested in a Caco-2 cells model (Gastroenterology 1989, 96, 736): […]

[2] = tested on: 14C-cholesterol absorption; assay: In Vivo Testing of Cholesterol Absorption Inhibitors (A); details: 0.2 μmol/kg by gavage, procedure A, C57BL/6 female mice
Method: In Vivo Testing of Cholesterol Absorption Inhibitors (A)
C57BL/6 female mice were maintained on regular chow diet and housed in individual cages to collect faeces. Mice were fasted for 3 hours and then gavaged with vehicle or compound. Half an hour later the mice were gavaged with radiolabelled cholesterol. Six hours after the ^14C-cholesterol gavage blood samples were taken via the tail and plasma prepared to determine how much cholesterol were absorbed. 24 hours after the gavage of ^14C-cholesterol the mice were bled and plasma were prepared for analysis. Faeces were collected for 24 hours to assess absorption efficiency.

Compound	Papp [1] [×10⁻⁶ cm/s]	inhibition of 14C-cholesterol absorption [2] [%]
CS(=O)(=O)NCC#Cc1ccc(N2C(=O)[C@H](SC[C@H](O)c3ccc(F)cc3)[C@H]2c2ccc(OCC(=O)NCC(=O)N[C@H](CC3CCCCC3)C(=O)O)cc2)cc1 [Example 1, N-({4-[(2R,3R)-3-{[(2R)-2-(4-fluorophenyl)-2-hydroxyethyl]thio}-1-(4-{3-[(methylsulfonyl)amino]prop-1-yn-1-yl}phenyl)-4-oxoazetidin-2-yl]phenoxy}acetyl)glycyl-3-cyclohexyl-D-alanine]	0.04	
CC(C)[C@@H](NC(=O)CNC(=O)COc1ccc([C@@H]2[C@@H](SC[C@H](O)c3ccc(F)cc3)C(=O)N2c2ccc(C#CCNS(C)(=O)=O)cc2)cc1)C(=O)O [Example 2, N-({4-[(2R,3R)-3-{[(2R)-2-(4-fluorophenyl)-2-hydroxyethyl]thio}-1-(4-{3-[(methylsulfonyl)amino]prop-1-yn-1-yl}phenyl)-4-oxoazetidin-2-yl]phenoxy}acetyl)glycyl-D-valine]	0.02	
CS(=O)(=O)NCC#Cc1ccc(N2C(=O)[C@H](SC[C@H](O)c3ccc(F)cc3)[C@H]2c2ccc(OCC(=O)NCC(=O)O)cc2)cc1 [Example 6, N-({4-[(2R,3R)-3-{[(2R)-2-(4-fluorophenyl)-2-hydroxyethyl]thio}-1-(4-{3-[(methylsulfonyl)amino]prop-1-yn-1-yl}phenyl)-4-oxoazetidin-2-yl]phenoxy}acetyl)glycine]		90
